# Measurements: US8741836B2, “Polypeptides” (Novo Nordisk A/S, priority 2011, dated 2014)
# Starred links: 1 amine or outer side, 2 acyl side, 3 side chain; linkers in the order of their positions; H or OH if unused. Positions of bridges follow the written chain, without caps; N, C: chain ends. Residues, ends and D or L forms follow the SMILES beside them. *: point of attachment. C20 diacid = O=C(O)CCCCCCCCCCCCCCCCCCC(=O)*; C18 diacid = O=C(O)CCCCCCCCCCCCCCCCC(=O)*; γGlu = O=C(O)[C@H](CCC(=O)[*:2])N[*:1]
# Experiment: Assay (III) ThT fibrillation assay for physical stability
# Type: physicochemical
# Details: pH 4.0, ThT fibrillation assay
# Outline: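 Freshly prepared, pH-adjusted formulations with 1 μM ThT incubated at 37 °C under 960 rpm orbital shaking (1 mm), fluorescence (ex 444, em 485 nm) read every 20 min. […] Peptide content before and after measured by reverse-phase HPLC against pramlintide standard.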
row,Structure (SMILES),ThT pH 4.0 lag time [h]
1,"CC[C@H](C)[C@H](NC(=O)[C@@H]1CCCN1C(=O)CNC(=O)[C@H](Cc1ccccc1)NC(=O)[C@H](CC(N)=O)NC(=O)[C@H](CO)NC(=O)[C@H](CO)NC(=O)[C@H](CO)NC(=O)[C@H](Cc1c[nH]cn1)NC(=O)[C@H](CCCNC(=N)N)NC(=O)[C@H](CC(C)C)NC(=O)[C@H](Cc1ccccc1)NC(=O)[C@H](CCC(=O)O)NC(=O)[C@H](C)NC(=O)[C@H](CC(C)C)NC(=O)[C@H](CCCNC(=N)N)NC(=O)[C@H](CCC(N)=O)NC(=O)[C@@H](NC(=O)[C@H](C)NC(=O)[C@@H]1CSSC[C@H](NC(=O)[C@H](Cc2c[nH]cn2)NC(=O)CC[C@H](NC(=O)CCCCCCCCCCCCCCCCCCC(=O)O)C(=O)O)C(=O)N[C@@H](CC(N)=O)C(=O)N[C@@H]([C@@H](C)O)C(=O)N[C@@H](C)C(=O)N[C@@H]([C@@H](C)O)C(=O)N1)[C@@H](C)O)C(=O)N[C@@H](CC(C)C)C(=O)N[C@@H](CO)C(=O)N[C@@H](CO)C(=O)N[C@H](C(=O)N[C@@H](CC(N)=O)C(=O)N[C@H](C(=O)NCC(=O)N[C@@H](CO)C(=O)N[C@@H](Cc1c[nH]cn1)C(=O)N[C@H](C(=O)N[C@@H](Cc1ccc(O)cc1)C(N)=O)[C@@H](C)O)C(C)C)[C@@H](C)O [Example 111, N-alpha-[(S)-4-Carboxy-4-(19-carboxynonadecanoylamino)butyryl]-[His1,Glu14,Arg17,Ser21,Ser28,Ser29,His35]-pramlintide] ({C20 diacid-γGlu}-HCNTATCATQRLAEFLRHSSSNFGPILSSTNVGSHTY-NH2; disulfide 2-7)",>45
2,"CC[C@H](C)[C@H](NC(=O)[C@@H]1CCCN1C(=O)CNC(=O)[C@H](Cc1ccccc1)NC(=O)[C@H](CC(N)=O)NC(=O)[C@H](CC(N)=O)NC(=O)[C@H](CO)NC(=O)[C@H](CO)NC(=O)[C@H](Cc1c[nH]cn1)NC(=O)[C@H](CCCNC(=N)N)NC(=O)[C@H](CC(C)C)NC(=O)[C@H](Cc1ccccc1)NC(=O)[C@H](CCC(=O)O)NC(=O)[C@H](C)NC(=O)[C@H](CC(C)C)NC(=O)[C@H](CCCNC(=N)N)NC(=O)[C@H](CCC(N)=O)NC(=O)[C@@H](NC(=O)[C@H](C)NC(=O)[C@@H]1CSSC[C@H](NC(=O)[C@H](CCCCN)NC(=O)[C@H](CCC(=O)O)NC(=O)CC[C@H](NC(=O)CCCCCCCCCCCCCCCCC(=O)O)C(=O)O)C(=O)N[C@@H](CC(N)=O)C(=O)N[C@@H]([C@@H](C)O)C(=O)N[C@@H](C)C(=O)N[C@@H]([C@@H](C)O)C(=O)N1)[C@@H](C)O)C(=O)N[C@@H](CC(C)C)C(=O)N1CCC[C@H]1C(=O)N1CCC[C@H]1C(=O)N[C@H](C(=O)N[C@@H](CC(N)=O)C(=O)N[C@H](C(=O)NCC(=O)N[C@@H](CO)C(=O)N[C@@H](Cc1c[nH]cn1)C(=O)N[C@H](C(=O)N[C@@H](Cc1ccc(O)cc1)C(N)=O)[C@@H](C)O)C(C)C)[C@@H](C)O [Example 62, N-alpha-[(S)-4-Carboxy-4-(17-carboxyheptadecanoylamino)butyryl]-Glu-[Glu14,Arg17,His35]-pramlintide] ({C18 diacid-γGlu}-EKCNTATCATQRLAEFLRHSSNNFGPILPPTNVGSHTY-NH2; disulfide 3-8 (inferred); C-terminus assumed)",30
3,"CC[C@H](C)[C@H](NC(=O)[C@@H]1CCCN1C(=O)CNC(=O)[C@H](Cc1ccccc1)NC(=O)[C@H](CC(N)=O)NC(=O)[C@H](CC(N)=O)NC(=O)[C@H](CO)NC(=O)[C@H](CO)NC(=O)[C@H](Cc1c[nH]cn1)NC(=O)[C@H](Cc1c[nH]cn1)NC(=O)[C@H](CC(C)C)NC(=O)[C@H](Cc1ccccc1)NC(=O)[C@H](CCC(=O)O)NC(=O)[C@H](C)NC(=O)[C@H](CC(C)C)NC(=O)[C@H](CCCNC(=N)N)NC(=O)[C@H](CCC(N)=O)NC(=O)[C@@H](NC(=O)[C@H](C)NC(=O)[C@@H]1CSSC[C@H](NC(=O)[C@H](CCCCN)NC(=O)CC[C@H](NC(=O)CCCCCCCCCCCCCCCCCCC(=O)O)C(=O)O)C(=O)N[C@@H](CC(N)=O)C(=O)N[C@@H]([C@@H](C)O)C(=O)N[C@@H](C)C(=O)N[C@@H]([C@@H](C)O)C(=O)N1)[C@@H](C)O)C(=O)N[C@@H](CC(C)C)C(=O)N1CCC[C@H]1C(=O)N1CCC[C@H]1C(=O)N[C@H](C(=O)N[C@@H](CC(N)=O)C(=O)N[C@H](C(=O)NCC(=O)N[C@@H](CO)C(=O)N[C@@H](CCCNC(=N)N)C(=O)N[C@H](C(=O)N[C@@H](Cc1ccc(O)cc1)C(N)=O)[C@@H](C)O)C(C)C)[C@@H](C)O [Example 112, N-alpha-[(S)-4-Carboxy-4-(19-carboxynonadecanoylamino)butyryl]-[Glu14,His17,Arg35]-pramlintide] ({C20 diacid-γGlu}-KCNTATCATQRLAEFLHHSSNNFGPILPPTNVGSRTY-NH2; disulfide 2-7 (inferred))",>45
4,"CC[C@H](C)[C@H](NC(=O)[C@@H]1CCCN1C(=O)CNC(=O)[C@H](Cc1ccccc1)NC(=O)[C@H](CC(N)=O)NC(=O)[C@H](CC(N)=O)NC(=O)[C@H](CO)NC(=O)[C@H](CO)NC(=O)[C@H](Cc1c[nH]cn1)NC(=O)[C@H](Cc1c[nH]cn1)NC(=O)[C@H](CC(C)C)NC(=O)[C@H](Cc1ccccc1)NC(=O)[C@H](CCC(=O)O)NC(=O)[C@H](C)NC(=O)[C@H](CC(C)C)NC(=O)[C@H](CCCNC(=N)N)NC(=O)[C@H](CCC(N)=O)NC(=O)[C@@H](NC(=O)[C@H](C)NC(=O)[C@@H]1CSSC[C@H](NC(=O)CNC(=O)CC[C@H](NC(=O)CCCCCCCCCCCCCCCCCCC(=O)O)C(=O)O)C(=O)N[C@@H](CC(N)=O)C(=O)N[C@@H]([C@@H](C)O)C(=O)N[C@@H](C)C(=O)N[C@@H]([C@@H](C)O)C(=O)N1)[C@@H](C)O)C(=O)N[C@@H](CC(C)C)C(=O)N1CCC[C@H]1C(=O)N1CCC[C@H]1C(=O)N[C@H](C(=O)N[C@@H](CC(N)=O)C(=O)N[C@H](C(=O)NCC(=O)N[C@@H](CO)C(=O)N[C@@H](CC(N)=O)C(=O)N[C@H](C(=O)N1CCC[C@H]1C(N)=O)[C@@H](C)O)C(C)C)[C@@H](C)O [Example 91, N-alpha-[(S)-4-Carboxy-4-(19-carboxynonadecanoylamino)butyryl]-[Gly1,Glu14,His17,Pro37]-pramlintide] ({C20 diacid-γGlu}-GCNTATCATQRLAEFLHHSSNNFGPILPPTNVGSNTP-NH2; disulfide 2-7 (inferred))",29
